# Results: patent US20230051589A1, “COMPOUNDS AND COMPOSITIONS FOR TREATING CONDITIONS ASSOCIATED WITH NLRP ACTIVITY” (Novartis AG, priority 2018, published 2023)
# Test system: IL-1β production in PMA-differentiated THP-1 cells
# Assay: IL-1β production in PMA-differentiated THP-1 cells stimulated with gramicidin (hTHP-1 assay, 2% fetal bovine serum; Procedures 1-3)
# Assay type: cell-based, human
# Conditions: Homo sapiens, THP-1, Table B3; hTHP-1 assay containing 2% fetal bovine serum, gramicidin stimulation, IL-1β readout; read-out: hTHP-1 IC50
# How it was run: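 IL-1β released into supernatants was read by HTRF after 2 h gramicidin (5 μM) challenge. Before challenge, compounds (3-fold dilutions, top 100 μM, 0.37% DMSO) were given 1 h on THP-1 cells differentiated with PMA (20 ng/ml, 16-18 h) and held in 2% FBS medium.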
row,IC50 [µM],Compound
1,0.2 to 1,"CC1c2c(csc2S(N)(=O)=NC(=O)Nc2c3c(cc4c2CCC4)CCC3)CN1C (stereo not drawn) [Example 768, N′-((1,2,3,5,6,7-hexahydro-s-indacen-4-yl)carbamoyl)-5,6-dimethyl-5,6-dihydro-4H-thieno[3,4-c]pyrrole-1-sulfonimidamide]"
2,0.2 to 1,"NS(=O)(=NC(=O)Nc1c2c(cc3c1CCC3)CCC2)c1cc2c(s1)CCOC2 (stereo not drawn) [Example 758, N′-((1,2,3,5,6,7-hexahydro-s-indacen-4-yl)carbamoyl)-6,7-dihydro-4H-thieno[3,2-c]pyran-2-sulfonimidamide]"
3,0.04 to 0.2,"NS(=O)(=NC(=O)Nc1c2c(cc3c1CC3)CCC2)c1cc2c(s1)CCNC2 (stereo not drawn) [Example 715, N′-((2,4,5,6-tetrahydro-1H-cyclobuta[f]inden-3-yl)carbamoyl)-4,5,6,7-tetrahydrothieno[3,2-c]pyridine-2-sulfonimidamide]"

# Same assay, conditions: Homo sapiens, THP-1, hTHP-1 assay containing 2% fetal bovine serum, Table B2, class symbols; read-out: IC50
row,IC50 [µM],Compound
1,1 to 5,"COCCNCc1ccc([S@](N)(=O)=NC(=O)Nc2c3c(cc4c2CCC4)CCC3)cc1 [Example 701, (R)-N′-((1,2,3,5,6,7-hexahydro-s-indacen-4-yl)carbamoyl)-4-(((2-methoxyethyl)amino)-methyl)benzenesulfonimidamide]"
2,0.04 to 0.2,"CC(C)(C)OC(=O)NC[C@@](C)(O)c1ncc(S(N)(=O)=NC(=O)Nc2c3c(cc4c2CCC4)CCC3)s1 (stereo partly drawn) [Example 676, Tert-butyl ((2R)-2-(5-(N′-((1,2,3,5,6,7-hexahydro-s-indacen-4-yl)carbamoyl)sulfamidimidoyl)thiazol-2-yl)-2-hydroxypropyl)carbamate]"
3,0.2 to 1,N[S@](=O)(=NC(=O)Nc1c2c(cc3c1CCC3)CCC2)c1ccc([C@@H]2CCCN2)s1 [Compound 921d]
4,0.04 to 0.2,C[C@](O)(CO)c1ncc(S(N)(=O)=NC(=O)Nc2c3c(cc4c2C(=O)CC4)CCC3)s1 (stereo partly drawn) [Compound 920c]
5,0.04 to 0.2,CC(C)(O)c1sc(S(N)(=O)=NC(=O)Nc2c3c(cc4c2CCC4)CCC3)cc1-c1ccccc1 (stereo not drawn) [Compound 900]
6,5 to 30,"CNCc1cccc(S(N)(=O)=NC(=O)Nc2c3c(cc4c2CCC4)CCC3)c1 (stereo not drawn) [Example 508, N′-((1,2,3,5,6,7-hexahydro-s-indacen-4-yl)carbamoyl)-3-((methylamino)methyl) benzenesulfonimidamide]"
7,5 to 30,N[S@@](=O)(=NC(=O)Nc1c2c(cc3c1CCC3)CCC2)c1ccc([C@H]2CCCN2)s1 [Compound 921a]
8,1 to 5,"CNCC1(c2ccc(S(N)(=O)=NC(=O)Nc3c4c(cc5c3CCC5)CCC4)c(F)c2)CC1 (stereo not drawn) [Example 495, 2-Fluoro-N′-((1,2,3,5,6,7-hexahydro-s-indacen-4-yl)carbamoyl)-4-(1-((methylamino)methyl)cyclopropyl)benzenesulfonimidamide]"
9,5 to 30,"CC(C)N(C)c1ccc(S(N)(=O)=NC(=O)Nc2c3c(cc4c2CCC4)CCC3)cc1 (stereo not drawn) [Example 489, N′-((1,2,3,5,6,7-hexahydro-s-indacen-4-yl)carbamoyl)-4-(isopropyl(methyl)ammo) benzenesulfonimidamide]"
10,1 to 5,"CNCc1ccc(S(N)(=O)=NC(=O)Nc2c3c(cc4c2CC4)CCC3)cc1 (stereo not drawn) [Example 448, 4-((Methylamino)methyl)-N′-((2,4,5,6-tetrahydro-1H-cyclobuta[f]inden-3-yl)carbamoyl)benzenesulfonimidamide]"
11,5 to 30,COCCN(C)Cc1cccc(S(N)(=O)=NC(=O)Nc2c3c(cc4c2CCC4)CCC3)c1 (stereo not drawn) [Example 504]
12,0.04 to 0.2,"C[C@@](O)(CN)c1ncc(S(N)(=O)=NC(=O)Nc2c3c(cc4c2CCC4)CCC3)s1 (stereo partly drawn) [Example 673, 2-((R)-1-amino-2-hydroxypropan-2-yl)-N′-((1,2,3,5,6,7-hexahydro-s-indacen-4-yl)carbamoyl)thiazole-5-sulfonimidamide]"
13,1 to 5,"NS(=O)(=NC(=O)Nc1c2c(cc3c1CCC3)CCC2)c1cccc(CN2CCOCC2)c1 (stereo not drawn) [Example 503, N′-((1,2,3,5,6,7-hexahydro-s-indacen-4-yl)carbamoyl)-3-(morpholinomethyl)benzenesulfonimidamide]"

# Same assay, conditions: Homo sapiens, THP-1, hTHP-1 assay containing 2% fetal bovine serum, Table B2, given as bound; read-out: IC50
row,IC50 [µM],Compound
1,> 30,"CC(C)(O)c1ncc(S(N)(=O)=NC(=O)Nc2cc3c(c4c2CCC4=O)CCC3)s1 (single isomer, unassigned) [Example 564, (S) or (R)-2-(2-hydroxypropan-2-yl)-N′-((1-oxo-1,2,3,6,7,8-hexahydro-as-indacen-4-yl)carbamoyl) thiazole-5-sulfonimidamide]"
2,> 30,"CC(OC(F)F)c1ccc(S(N)(=O)=NC(=O)Nc2c3c(cc4c2CCC4)CCC3)cc1 (single isomer, unassigned) [Example 643]"

# Same assay, conditions: Table B1; hTHP-1 assay containing 2% fetal bovine serum, gramicidin stimulation, IL-1β readout; read-out: hTHP-1 IC50 (average)
row,IC50 [µM],Compound
1,0.04 to 0.2,"CC(C)(O)c1cnc(S(N)(=O)=NC(=O)Nc2c3c(cc4c2OCC4)CCC3)s1 (single isomer, unassigned) [Example 350, (R) or (S)-5-(2-hydroxy-propan-2-yl)-N′-((3,5,6,7-tetrahydro-2H-indeno-[5,6-b]furan-8-yl)carbam-oyl)thiazole-2-sulfonimid-amide]"
2,0.04 to 0.2,"CC(C)(O)c1ncc(S(N)(=O)=NC(=O)Nc2c3c(cc4c2OCC4)CCC3)s1 (single isomer, unassigned) [Example 343, (R) or (S)-2-(2-hydroxy-propan-2-yl)-N′-((3,5,6,7-tetrahydro-2H-indeno[5,6-b]furan-8-yl)carbamoyl)-thiazole-5-sulfonimidamide]"
3,1 to 5,"COCCN(C)Cc1ccc(S(N)(=O)=NC(=O)Nc2c3c(cc4c2CCC4)CCC3)cc1 (single isomer, unassigned) [Example 390, (R) or (S)-N′-((1,2,3,5,6,7-hexahydro-s-indacen-4-yl)carbamoyl)-4-(((2-meth-oxyethyl)(methyl)amino)-methyl)benzenesulfonimid-amide]"
4,0.04 to 0.2,"CC(C)(O)c1ncc(S(N)(=O)=NC(=O)Nc2cc3c(c4c2CCC4)CCC3)s1 (single isomer, unassigned) [Example 419, (R) or (S)-N′-((1,2,3,6,7,8-hexahydro-as-indacen-4-yl)carbamoyl)-2-(2-hydroxypropan-2-yl)thia-zole-5-sulfonimidamide]"
5,0.04 to 0.2,"CC1CCc2c1cc1c(c2NC(=O)N=S(N)(=O)c2cnc(C(C)(C)O)s2)CCC1 (stereo not drawn) [Example 291, 2-(2-Hydroxypropan-2-yl)-N′-((1-methyl-1,2,3,5,6,7-hexahydro-s-indacen-4-yl)-carbamoyl)thiazole-5-sulfon-imidamide]"

# Same assay, conditions: Table B3; hTHP-1 assay containing 2% fetal bovine serum, gramicidin stimulation, IL-1β readout; read-out: hTHP-1 IC50
row,IC50 [µM],Compound
1,1 to 5,"CCn1ccc(S(N)(=O)=NC(=O)Nc2c3c(cc4c2CCC4)CCC3)n1 (single isomer, unassigned) [Example 814, (S) or (R)-1-ethyl-N′-((1,2,3,5,6,7-hexahydro-s-indacen-4-yl)carbamoyl)-1H-pyrazole-3-sulfonimidamide]"
2,5 to 30,"NS(=O)(=NC(=O)Nc1c2c(cc3c1CCC3)CCC2)c1cc2c(s1)CCOC2 (single isomer, unassigned) [Example 790, (S) or (R)-N′-((1,2,3,5,6,7-hexahydro-s-indacen-4-yl)carbamoyl)-6,7-dihydro-4H-thieno[3,2-c]pyran-2-sulfonimidamide]"
3,0.2 to 1,"NS(=O)(=NC(=O)Nc1c2c(cc3c1CC3)CCC2)c1sc2c(c1F)COCC2 (single isomer, unassigned) [Example 841, (R) or (S)-3-fluoro-N′-((2,4,5,6-tetrahydro-1H-cyclobuta[f]inden-3-yl)carbamoyl)-6,7-dihydro-4H-thieno[3,2-c]pyran-2-sulfonimidamide]"

# Same assay, conditions: hTHP-1 assay containing 2% fetal bovine serum, Table B2, class symbols; read-out: IC50
row,IC50 [µM],Compound
1,0.2 to 1,"CN(C)Cc1ccc(S(N)(=O)=NC(=O)Nc2c3c(cc4c2CC4)CC3)cc1 (single isomer, unassigned) [Example 582, (R) or (S)-4-((dimethylamino)methyl)-N′-(tricyclo[6.2.0.03,6]deca-1,3(6),7-trien-2-ylcarbamoyl) benzenesulfonimidamide]"
2,0.2 to 1,"CC(C)(O)c1cc(F)c(S(N)(=O)=NC(=O)Nc2c3c(cc4c2CC4)CCC3)s1 (single isomer, unassigned) [Example 433]"
3,0.04 to 0.2,"N-(amino((R)-6-methoxy-6,7- dihydro-5H-pyrazolo[5,1- b][1,3]oxazin-3-yl)(oxo)-9,6- sulfaneylidene)-1,2,3,5,6,7- hexahydro-s-indacene-4-carboxamide [Example 472]"
4,1 to 5,"CC(C)(O)c1csc([S@@](N)(=O)=NC(=O)Nc2c3c(cc4c2C(=O)CC4)CCC3)c1 (single isomer, unassigned) [Example 531, (S) or (R)-4-(2-hydroxypropan-2-yl)-N′-((3-oxo-1,2,3,5,6,7-hexahydro-s-indacen-4-yl)carbamoyl) (thiophene-2 - sulfoniinidamide]"
5,5 to 30,"CNC(C)(C)c1ccc(S(N)(=O)=NC(=O)Nc2c3c(cc4c2CCC4)CCC3)c(F)c1 (single isomer, unassigned) [Example 592, (S) or (R)-2-fluoro-N′-((1,2,3,5,6,7-hexahydro-s-indacen-4-yl)carbamoyl)-4-(2-(methylamino)propan-2-yl) benzenesulfonimidamide]"
6,5 to 30,"CC(C)n1nc(S(N)(=O)=NC(=O)Nc2c3c(c(C#N)c4c2CCC4)CCC3)cc1CO (single isomer, unassigned) [Example 549, (S) or (R)-N′-((8-cyano-1,2,3,5,6,7-hexahydro-s-indacen-4-yl)carbamoyl)-5-(hydroxymethyl)-1-isopropyl-1H-pyrazole-3-sulfonimidamide]"

# Same assay, conditions: hTHP-1 assay containing 2% fetal bovine serum, Table B2, given as bound; read-out: IC50
row,Compound,IC50 [µM]
1,"N[S@](=O)(=NC(=O)Nc1c2c(cc3c1CCC3)CCC2)c1ccc(C(F)F)nc1 (single isomer, unassigned) [Example 594, (S) or (R)-6-(difluoromethyl)-N′-((1,2,3,5,6,7-hexahydroxy-indacen-4-yl)carbamoyl) pyridine-3-sulfonimidamide]",> 30
